Source: PubChem BioAssay AID1963426 (Molecular Pharmacology Branch, DTP, NCI, 2024)
Values joined by “and” are separate entries in the source; they are usually repeats but may differ in a detail not shown here. Identical values can stand only once. One block for each molecule: values may come before it.

Test system: 186277-243-T-J2-PDC complex spheroid growth, % test/control
Test: Anticancer human tumor 186277-243-T-J2-PDC patient-derived colon adenocarcinoma cell line growth inhibition [Asc]
Settings: for viability, T/C: stronger effect = lower value
Method in brief: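 Complex spheroids combining tumor cells with HUVEC endothelial cells and human MSCs, at 37 degrees C, 5% CO2; agents tested alone or combined, half-log dilutions from at or near clinical Cmax, or 10 microM if Cmax unknown.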
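Also: spheroids exposed to agents for 7 days.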
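For viability, T/C in this document: 100% = DMSO vehicle control wells.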

IC50 (curve of first compound, second compound 0.03 µM): > 1 µM
IC50 (curve of first compound, second compound 0.0949 µM): > 1 µM
IC50 (curve of first compound, second compound 0.3 µM): > 1 µM
IC50 (curve of first compound, second compound 0.949 µM): 0.415 µM
IC50 (curve of first compound, second compound 3 µM): < 0.00316 µM
Compound: CNC(C)C(=O)NC1CN(S(=O)(=O)c2cccc(S(=O)(=O)N3CCC4CCC(C(=O)NC(c5ccccc5)c5ccccc5)N4C(=O)C(NC(=O)C(C)NC)C3)c2)CCC2CCC(C(=O)NC(c3ccccc3)c3ccccc3)N2C1=O (configuration not stated) + CCN1C(C(=O)NC23CCC(C(=O)O)(CC2)CC3)C(c2cccc(Cl)c2F)C2(C(=O)Nc3cc(Cl)ccc32)C12CCCCC2
viability, T/C (second compound 0.03 µM, first compound 0.00316 µM): 101%
viability, T/C (second compound 0.03 µM, first compound 0.01 µM): 131%
viability, T/C (second compound 0.03 µM, first compound 0.0316 µM): 113%
viability, T/C (second compound 0.03 µM, first compound 0.1 µM): 102%
viability, T/C (second compound 0.03 µM, first compound 0.316 µM): 113%
viability, T/C (second compound 0.03 µM, first compound 1 µM): 112%
viability, T/C (second compound 0.0949 µM, first compound 0.00316 µM): 115%
viability, T/C (second compound 0.0949 µM, first compound 0.01 µM): 114%
viability, T/C (second compound 0.0949 µM, first compound 0.0316 µM): 111%
viability, T/C (second compound 0.0949 µM, first compound 0.1 µM): 94.9%
viability, T/C (second compound 0.0949 µM, first compound 0.316 µM): 82.5%
viability, T/C (second compound 0.0949 µM, first compound 1 µM): 84.9%
viability, T/C (second compound 0.3 µM, first compound 0.00316 µM): 73.6%
viability, T/C (second compound 0.3 µM, first compound 0.01 µM): 79.6%
viability, T/C (second compound 0.3 µM, first compound 0.0316 µM): 87%
viability, T/C (second compound 0.3 µM, first compound 0.1 µM): 77.2%
viability, T/C (second compound 0.3 µM, first compound 0.316 µM): 77.2%
viability, T/C (second compound 0.3 µM, first compound 1 µM): 56.6%
viability, T/C (second compound 0.949 µM, first compound 0.00316 µM): 60.8%
viability, T/C (second compound 0.949 µM, first compound 0.01 µM): 54.8%
viability, T/C (second compound 0.949 µM, first compound 0.0316 µM): 56.7%
viability, T/C (second compound 0.949 µM, first compound 0.1 µM): 55.7%
viability, T/C (second compound 0.949 µM, first compound 0.316 µM): 55.6%
viability, T/C (second compound 0.949 µM, first compound 1 µM): 32.4%
viability, T/C (second compound 3 µM, first compound 0.00316 µM): 36.9%
viability, T/C (second compound 3 µM, first compound 0.01 µM): 37.6%
viability, T/C (second compound 3 µM, first compound 0.0316 µM): 36.2%
viability, T/C (second compound 3 µM, first compound 0.1 µM): 31.5%
viability, T/C (second compound 3 µM, first compound 0.316 µM): 29.6%
viability, T/C (second compound 3 µM, first compound 1 µM): 28.8%

IC50 (curve of first compound, second compound 0.1 µM): > 10 µM
IC50 (curve of first compound, second compound 0.316 µM): > 10 µM
IC50 (curve of first compound, second compound 1 µM): 7.98 µM
IC50 (curve of first compound, second compound 3.16 µM): 4.39 µM
IC50 (curve of first compound, second compound 10 µM): 4.74 µM
Compound: O=C(c1cc(Cc2n[nH]c(=O)c3ccccc23)ccc1F)N1CCN(C(=O)C2CC2)CC1 + Cc1c(S(C)(=O)=O)c(-c2cc(F)cc(N3CCN(c4ccc(NS(=O)(=O)c5ccc(NC(CCN6CCC(C(=O)OCCCP(=O)(O)O)CC6)CSc6ccccc6)c(S(=O)(=O)C(F)(F)F)c5)cc4)CC3)c2)c(-c2ccc(Cl)cc2)n1C(C)C
viability, T/C (second compound 0.1 µM, first compound 0.0316 µM): 96.9%
viability, T/C (second compound 0.1 µM, first compound 0.1 µM): 87.8%
viability, T/C (second compound 0.1 µM, first compound 0.316 µM): 99.3%
viability, T/C (second compound 0.1 µM, first compound 1 µM): 114%
viability, T/C (second compound 0.1 µM, first compound 3.16 µM): 103%
viability, T/C (second compound 0.1 µM, first compound 10 µM): 91.8%
viability, T/C (second compound 0.316 µM, first compound 0.0316 µM): 89.1%
viability, T/C (second compound 0.316 µM, first compound 0.1 µM): 101%
viability, T/C (second compound 0.316 µM, first compound 0.316 µM): 96.2%
viability, T/C (second compound 0.316 µM, first compound 1 µM): 104%
viability, T/C (second compound 0.316 µM, first compound 3.16 µM): 86.3%
viability, T/C (second compound 0.316 µM, first compound 10 µM): 65.8%
viability, T/C (second compound 1 µM, first compound 0.0316 µM): 99.7%
viability, T/C (second compound 1 µM, first compound 0.1 µM): 101%
viability, T/C (second compound 1 µM, first compound 0.316 µM): 96.2%
viability, T/C (second compound 1 µM, first compound 1 µM): 96.5%
viability, T/C (second compound 1 µM, first compound 3.16 µM): 86.7%
viability, T/C (second compound 1 µM, first compound 10 µM): 40.7%
viability, T/C (second compound 3.16 µM, first compound 0.0316 µM): 96%
viability, T/C (second compound 3.16 µM, first compound 0.1 µM): 93.5%
viability, T/C (second compound 3.16 µM, first compound 0.316 µM): 109%
viability, T/C (second compound 3.16 µM, first compound 1 µM): 93%
viability, T/C (second compound 3.16 µM, first compound 3.16 µM): 60.5%
viability, T/C (second compound 3.16 µM, first compound 10 µM): 24%
viability, T/C (second compound 10 µM, first compound 0.0316 µM): 92.6%
viability, T/C (second compound 10 µM, first compound 0.1 µM): 95.1%
viability, T/C (second compound 10 µM, first compound 0.316 µM): 96.5%
viability, T/C (second compound 10 µM, first compound 1 µM): 88.9%
viability, T/C (second compound 10 µM, first compound 3.16 µM): 67.6%
viability, T/C (second compound 10 µM, first compound 10 µM): 17.9%

IC50 (curve of compound): 1.86 µM and > 3 µM
Compound: CCN1C(C(=O)NC23CCC(C(=O)O)(CC2)CC3)C(c2cccc(Cl)c2F)C2(C(=O)Nc3cc(Cl)ccc32)C12CCCCC2 (configuration not stated)
viability, T/C (compound 0.00949 µM): 110% and 119%
